# Legend:
# [1] = Gravimetric vapour sorption (GVS) analysis; assay type: physicochemical
# Experimental: Gravimetric Vapour Sorption (GVS) Analysis
# The sample was allowed to equilibrate at 40% RH before starting a pre-defined humidity program (40-0-95-0-95-40% RH, steps of 5% ΔRH and with a maximal equilibration time of 24 hours per step were applied. About 20 to 30 mg of each sample was used. The hygroscopic classification is done according to the European Pharmacopeia Technical Guide (1999, page 86), e.g., slightly hygroscopic: increase in mass is less than 2% and equal to or greater than 0.2% mass/mass; hygroscopic: increase in mass is less than 15% and equal to or greater than 2% mass/mass. The mass change between 40% relative humidity and 80% relative humidity in the first adsorption scan is considered.
# fasted hungry rats = fasted hungry rats exposed to food odors; cited from earlier work
# rats [2] = conditions: cited from earlier work
# rat [3] = conditions: animal model of conditioned fear; cited from earlier work
# rats [4] = conditions: rats treated with the compound; cited from earlier work
# [5] = system: amyloid precursor protein transgenic mice; conditions: after acute sleep restriction; cited from earlier work
# mouse = mouse model of depression, administered chronically; cited from earlier work
# rat [6] = conditions: cited from earlier work
# humans = conditions: indication primary insomnia; cited from earlier work
# rat [7] = conditions: rat model; cited from earlier work
# rodents [8] = conditions: cited from earlier work
# rodents [9] = conditions: induced by repeated amphetamine administration in rodents; cited from earlier work
# Wistar rats = assay: Sedative effects: EEG, EMG and behavioural indices of alertness by radiotelemetry; assay type: in vivo; conditions: 30 mg/kg po, effects analyzed over 6 hours
# Experimental: Sedative Effects: EEG, EMG and Behavioural Indices of Alertness Recorded by Radiotelemetry In Vivo in Wistar Rats.
# Electroencephalography (EEG) and Electromyography (EMG) signals were measured by telemetry using TL11M2-F20-EET miniature radiotelemetric implants (Data Science Int.) with two pairs of differential leads.
# Surgical implantation was performed under general anesthesia with Ketamin/Xylazin, for cranial placement of one differential pair of EEG electrodes and one pair of EMG leads inserted in either side of the muscles of the neck. After surgery, rats recovered in a thermoregulated chamber and received analgesic treatment with subcutaneous buprenorphine twice a day for 2 d. They were then housed individually and allowed to recover for a minimum of 2 weeks. Thereafter, rats—in their home cage—were placed in a ventilated sound-attenuating box, on a 12-h light/12-h dark cycle, for acclimatization before continuous EEG/EMG recordings started. The telemetric technology that we used in this study allows accurate and stress-free acquisition of biosignals in rats placed in their familiar home cage environment, with no recording leads restricting their movements. Variables analyzed included four different stages of vigilance and sleep, spontaneous activity in the home cage and body temperature. Sleep and wake stages were evaluated using a rodent scoring software (Somnologica Science) directly processing electrical biosignals on 10 s contiguous epochs. The scoring is based on frequency estimation for EEG and amplitude discrimination for EMG and locomotor activity. Using these measurements, the software determines the probability that all components within each epoch best represent active waking (AW), quiet waking (QW), non-REM-sleep (NREM) or REM-sleep (REM). The percentage of total time spent in AW, QW, NREM- and REM-sleep was calculated per 12 h light or dark period. The latency to the onset of the first significant NREM- and REM-sleep episodes and the frequency and duration of those episodes were also calculated. […] All variables were subsequently recorded for 12 h following administration of the orexin receptor antagonist.
compound,measurement,setting,value
"COc1ccc(-n2nccn2)c(C(=O)N2CCC[C@@]2(C)c2nc3ccc(Cl)c(C)c3[nH]2)c1.Cl [COMPOUND hydrochloride, (S)-(2-(6-chloro-7-methyl-1H-benzo[d]imidazol-2-yl)-2-methylpyrrolidin-1-yl)(5-methoxy-2-(2H-1,2,3-triazol-2-yl)phenyl)methanone hydrochloride]",Hygroscopicity classification,"[1]; 25° C., European Pharmacopeia Technical Guide classification",Non hygroscopic (mass change smaller then
same,Hygroscopicity: mass change,"[1]; between 40% and 80% relative humidity, first adsorption scan, 25° C.",< 0.1%
same,Sorption behavior between cycles,[1]; first to second cycle,"Reproducible, cycle independent"
"CNC(=O)[C@@H](c1ccccc1)N1CCc2cc(OC)c(OC)cc2[C@@H]1CCc1ccc(C(F)(F)F)cc1 [(2R)-2-{(1S)-6,7-dimethoxy-1-[2-(4-trifluoromethyl-phenyl)-ethyl]-3,4-dihydro-1H-isoquinolin-2-yl}-N-methyl-2-phenyl-acetamide]",natural activation induced by orexin A,fasted hungry rats,attenuate
same,cardiovascular responses to conditioned fear and novelty exposure,rats [2],attenuated
same,activity in rat fear-potentiated startle paradigm,rat [3],active
same,declarative and non-declarative learning and memory,rats [4],intact
same,brain levels of amyloid-beta (Aβ) and Aβ plaque deposition,[5],decreased
same,antidepressant-like activity,mouse,induce antidepressant-like activity
same,alertness (active wake and locomotion),rat [6],decrease alertness
same,time spent in REM and NREM sleep,rat [6],dose-dependently increase
same,clinical efficacy,humans,showed clinical efficacy
same,activity in nicotine self-administration,rat [7],displayed pharmacological activity
Cn1c(SCC(=O)N2CCC[C@H]2C(=O)Nc2ccccc2-c2ccccc2)nc2ccccc21 [N-biphenyl-2-yl-1-{[(1-methyl-1H-benzimidazol-2-yl)sulfanyl]acetyl}-L-prolinamide],nicotine-reinstatement for a conditioned reinforcer,rodents [8],inhibited
same,behavioral (locomotor sensitization) and molecular (transcriptional responses) changes,rodents [9],reduced
"COc1ccc(-n2nccn2)c(C(=O)N2CCC[C@@]2(C)c2nc3c(C)c(Cl)ccc3[nH]2)c1 [COMPOUND, (S)-(2-(6-chloro-7-methyl-1H-benzo[d]imidazol-2-yl)-2-methylpyrrolidin-1-yl)(5-methoxy-2-(2H-1,2,3-triazol-2-yl)phenyl)methanone]",effect on NREM sleep compared to vehicle controls,Wistar rats,+27%
same,effect on REM sleep compared to vehicle controls,Wistar rats,+53%
same,effect on active wake compared to vehicle controls,Wistar rats,−24%
same,effect on home cage activity compared to vehicle controls,Wistar rats,−31%
same,Hygroscopicity: sorption of moisture,"[1]; humidity program 40-0-95-0-95-40% RH, 25° C.",≤ 2.7 % moisture mass/mass

# Source: patent US10023560B2, “Crystalline salt form of (S)-(2-(6 chloro-7-methyl-1H-benzo[d]imidazol-2-yl)-2-methylpyrrolidin-1-yl)(5-methoxy-2-(2H-1,2,3-triazol-2-yl)phenyl)methanone as orexin receptor antagonist” (priority 2013, dated 2018)
